Data taken from PubChem BioAssay (NCI).
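Cultured in 96-well plates, cells were exposed to test compound for 48 hours across five concentrations. GI50 is the concentration that inhibits growth by half. At the TGI there is no net growth.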

Experiments:
Test in all cases: growth of human tumour cells (NCI), 48 h
SK-MEL-2 melanoma = test system: SK-MEL-2 melanoma
HOP-62 NSCLC = test system: HOP-62 NSCLC
UACC-257 melanoma = test system: UACC-257 melanoma
SK-OV-3 ovarian = test system: SK-OV-3 ovarian
MCF7 breast = test system: MCF7 breast
T-47D breast = test system: T-47D breast
SF-295 CNS = test system: SF-295 CNS
IGROV1 ovarian = test system: IGROV1 ovarian
SF-268 CNS = test system: SF-268 CNS
SK-MEL-28 melanoma = test system: SK-MEL-28 melanoma
786-0 renal = test system: 786-0 renal
TK-10 renal = test system: TK-10 renal
SW-620 colon = test system: SW-620 colon
HCT-116 colon = test system: HCT-116 colon
HT29 colon = test system: HT29 colon
K-562 leukemia = test system: K-562 leukemia
SK-MEL-5 melanoma = test system: SK-MEL-5 melanoma
LOX IMVI melanoma = test system: LOX IMVI melanoma
SNB-75 CNS = test system: SNB-75 CNS
ACHN renal = test system: ACHN renal
SN12C renal = test system: SN12C renal
DU-145 prostate = test system: DU-145 prostate
COLO 205 colon = test system: COLO 205 colon
CAKI-1 renal = test system: CAKI-1 renal
SF-539 CNS = test system: SF-539 CNS
M14 melanoma = test system: M14 melanoma
EKVX NSCLC = test system: EKVX NSCLC
U251 CNS = test system: U251 CNS
UACC-62 melanoma = test system: UACC-62 melanoma
HS 578T breast = test system: HS 578T breast
NCI-H23 lung = test system: NCI-H23 lung
MALME-3M melanoma = test system: MALME-3M melanoma
OVCAR-8 ovarian = test system: OVCAR-8 ovarian
PC-3 prostate = test system: PC-3 prostate
HOP-92 NSCLC = test system: HOP-92 NSCLC
OVCAR-3 ovarian = test system: OVCAR-3 ovarian
NCI-H226 lung = test system: NCI-H226 lung
OVCAR-4 ovarian = test system: OVCAR-4 ovarian
MDA-MB-435 = test system: MDA-MB-435
UO-31 renal = test system: UO-31 renal
MDA-MB-231 breast = test system: MDA-MB-231 breast
SR leukemia = test system: SR leukemia
HL-60(TB) leukemia = test system: HL-60(TB) leukemia
A498 renal = test system: A498 renal
NCI-H460 lung = test system: NCI-H460 lung
CCRF-CEM leukemia = test system: CCRF-CEM leukemia
RPMI-8226 leukemia = test system: RPMI-8226 leukemia
RXF 393 renal = test system: RXF 393 renal
HCT-15 colon = test system: HCT-15 colon
KM12 colon = test system: KM12 colon
MOLT-4 leukemia = test system: MOLT-4 leukemia
NCI-H522 lung = test system: NCI-H522 lung
A549 NSCLC = test system: A549 NSCLC
SNB-19 CNS = test system: SNB-19 CNS
OVCAR-5 ovarian = test system: OVCAR-5 ovarian
HCC-2998 colon = test system: HCC-2998 colon
BT-549 breast = test system: BT-549 breast
NCI/ADR-RES ovarian = test system: NCI/ADR-RES ovarian

With `CN(C)C=Nc1c(I)cc(I)c(CCC(=O)O)c1I` as the compound, how does the GI50 (SK-MEL-2 melanoma) read?
Its GI50 is greater than 100 µM.

What about the TGI (SK-MEL-2 melanoma) of the same compound?
Its TGI is greater than 100 µM.

What about the GI50 (HOP-62 NSCLC) of the same compound?
Its GI50 is greater than 100 µM.

What about the TGI (HOP-62 NSCLC) of the same compound?
The TGI was greater than 100 µM.

What about the GI50 (UACC-257 melanoma) of the same compound?
The GI50 was greater than 100 µM.

And the TGI (UACC-257 melanoma)?
The TGI was greater than 100 µM.

What about the GI50 (SK-OV-3 ovarian) of the same compound?
The GI50 was greater than 100 µM.

And the TGI (SK-OV-3 ovarian)?
The TGI was greater than 100 µM.

And the GI50 (MCF7 breast)?
The GI50 was greater than 100 µM.

What about the TGI (MCF7 breast) of the same compound?
Its TGI is greater than 100 µM.

What about the GI50 (T-47D breast) of the same compound?
Its GI50 is greater than 100 µM.

And the TGI (T-47D breast)?
Its TGI is greater than 100 µM.

What about the GI50 (SF-295 CNS) of the same compound?
The GI50 was greater than 100 µM.

What about the TGI (SF-295 CNS) of the same compound?
Its TGI is greater than 100 µM.

And the GI50 (IGROV1 ovarian)?
The GI50 was greater than 100 µM.

And the TGI (IGROV1 ovarian)?
Its TGI is greater than 100 µM.

What about the GI50 (SF-268 CNS) of the same compound?
Its GI50 is greater than 100 µM.

And the TGI (SF-268 CNS)?
Its TGI is greater than 100 µM.

And the GI50 (SK-MEL-28 melanoma)?
The GI50 was greater than 100 µM.

What about the TGI (SK-MEL-28 melanoma) of the same compound?
The TGI was greater than 100 µM.

What about the GI50 (786-0 renal) of the same compound?
The GI50 was greater than 100 µM.

And the TGI (786-0 renal)?
Its TGI is greater than 100 µM.

And the GI50 (TK-10 renal)?
The GI50 was greater than 100 µM.

What about the TGI (TK-10 renal) of the same compound?
The TGI was greater than 100 µM.

And the GI50 (SW-620 colon)?
The GI50 was greater than 100 µM.

And the TGI (SW-620 colon)?
Its TGI is greater than 100 µM.

And the GI50 (HCT-116 colon)?
The GI50 was greater than 100 µM.

What about the TGI (HCT-116 colon) of the same compound?
The TGI was greater than 100 µM.

And the GI50 (HT29 colon)?
The GI50 was greater than 100 µM.

What about the TGI (HT29 colon) of the same compound?
The TGI was greater than 100 µM.

And the GI50 (K-562 leukemia)?
The GI50 was 59.3 µM.

And the TGI (K-562 leukemia)?
The TGI was greater than 100 µM.

And the GI50 (SK-MEL-5 melanoma)?
The GI50 was greater than 100 µM.

And the TGI (SK-MEL-5 melanoma)?
The TGI was greater than 100 µM.

And the GI50 (LOX IMVI melanoma)?
The GI50 was greater than 100 µM.

And the TGI (LOX IMVI melanoma)?
Its TGI is greater than 100 µM.

And the GI50 (SNB-75 CNS)?
Its GI50 is greater than 100 µM.

And the TGI (SNB-75 CNS)?
Its TGI is greater than 100 µM.

And the GI50 (ACHN renal)?
The GI50 was greater than 100 µM.

What about the TGI (ACHN renal) of the same compound?
Its TGI is greater than 100 µM.

What about the GI50 (SN12C renal) of the same compound?
Its GI50 is greater than 100 µM.

And the TGI (SN12C renal)?
Its TGI is greater than 100 µM.

What about the GI50 (DU-145 prostate) of the same compound?
The GI50 was greater than 100 µM.

What about the TGI (DU-145 prostate) of the same compound?
Its TGI is greater than 100 µM.

And the GI50 (COLO 205 colon)?
The GI50 was greater than 100 µM.

And the TGI (COLO 205 colon)?
Its TGI is greater than 100 µM.

And the GI50 (CAKI-1 renal)?
Its GI50 is greater than 100 µM.

What about the TGI (CAKI-1 renal) of the same compound?
Its TGI is greater than 100 µM.

And the GI50 (SF-539 CNS)?
The GI50 was greater than 100 µM.

And the TGI (SF-539 CNS)?
Its TGI is greater than 100 µM.

And the GI50 (M14 melanoma)?
The GI50 was greater than 100 µM.

What about the TGI (M14 melanoma) of the same compound?
Its TGI is greater than 100 µM.

What about the GI50 (EKVX NSCLC) of the same compound?
Its GI50 is greater than 100 µM.

And the TGI (EKVX NSCLC)?
The TGI was greater than 100 µM.

What about the GI50 (U251 CNS) of the same compound?
Its GI50 is greater than 100 µM.

And the TGI (U251 CNS)?
Its TGI is greater than 100 µM.

And the GI50 (UACC-62 melanoma)?
Its GI50 is greater than 100 µM.

What about the TGI (UACC-62 melanoma) of the same compound?
Its TGI is greater than 100 µM.

And the GI50 (HS 578T breast)?
The GI50 was greater than 100 µM.

And the TGI (HS 578T breast)?
Its TGI is greater than 100 µM.

And the GI50 (NCI-H23 lung)?
Its GI50 is greater than 100 µM.

And the TGI (NCI-H23 lung)?
The TGI was greater than 100 µM.

And the GI50 (MALME-3M melanoma)?
Its GI50 is greater than 100 µM.

What about the TGI (MALME-3M melanoma) of the same compound?
The TGI was greater than 100 µM.

And the GI50 (OVCAR-8 ovarian)?
The GI50 was greater than 100 µM.

And the TGI (OVCAR-8 ovarian)?
Its TGI is greater than 100 µM.

And the GI50 (PC-3 prostate)?
Its GI50 is 91.5 µM.

What about the TGI (PC-3 prostate) of the same compound?
The TGI was greater than 100 µM.

What about the GI50 (HOP-92 NSCLC) of the same compound?
Its GI50 is 45.4 µM.

What about the TGI (HOP-92 NSCLC) of the same compound?
Its TGI is greater than 100 µM.

What about the GI50 (OVCAR-3 ovarian) of the same compound?
Its GI50 is greater than 100 µM.

And the TGI (OVCAR-3 ovarian)?
Its TGI is greater than 100 µM.

What about the GI50 (NCI-H226 lung) of the same compound?
Its GI50 is greater than 100 µM.

And the TGI (NCI-H226 lung)?
The TGI was greater than 100 µM.

And the GI50 (OVCAR-4 ovarian)?
Its GI50 is greater than 100 µM.

And the TGI (OVCAR-4 ovarian)?
Its TGI is greater than 100 µM.

What about the GI50 (MDA-MB-435) of the same compound?
The GI50 was greater than 100 µM.

What about the TGI (MDA-MB-435) of the same compound?
The TGI was greater than 100 µM.

What about the GI50 (UO-31 renal) of the same compound?
Its GI50 is greater than 100 µM.

What about the TGI (UO-31 renal) of the same compound?
The TGI was greater than 100 µM.

What about the GI50 (MDA-MB-231 breast) of the same compound?
Its GI50 is greater than 100 µM.

And the TGI (MDA-MB-231 breast)?
The TGI was greater than 100 µM.

And the GI50 (SR leukemia)?
Its GI50 is greater than 100 µM.

And the TGI (SR leukemia)?
The TGI was greater than 100 µM.

What about the GI50 (HL-60(TB) leukemia) of the same compound?
Its GI50 is 82.9 µM.

What about the TGI (HL-60(TB) leukemia) of the same compound?
Its TGI is greater than 100 µM.

What about the GI50 (A498 renal) of the same compound?
Its GI50 is 81.6 µM.

And the TGI (A498 renal)?
Its TGI is greater than 100 µM.

What about the GI50 (NCI-H460 lung) of the same compound?
The GI50 was greater than 100 µM.

And the TGI (NCI-H460 lung)?
The TGI was greater than 100 µM.

What about the GI50 (CCRF-CEM leukemia) of the same compound?
Its GI50 is greater than 100 µM.

What about the TGI (CCRF-CEM leukemia) of the same compound?
The TGI was greater than 100 µM.

And the GI50 (RPMI-8226 leukemia)?
The GI50 was greater than 100 µM.

And the TGI (RPMI-8226 leukemia)?
The TGI was greater than 100 µM.

What about the GI50 (RXF 393 renal) of the same compound?
Its GI50 is greater than 100 µM.

What about the TGI (RXF 393 renal) of the same compound?
The TGI was greater than 100 µM.

What about the GI50 (HCT-15 colon) of the same compound?
Its GI50 is greater than 100 µM.

And the TGI (HCT-15 colon)?
The TGI was greater than 100 µM.

And the GI50 (KM12 colon)?
The GI50 was greater than 100 µM.

What about the TGI (KM12 colon) of the same compound?
Its TGI is greater than 100 µM.

And the GI50 (MOLT-4 leukemia)?
The GI50 was greater than 100 µM.

And the TGI (MOLT-4 leukemia)?
The TGI was greater than 100 µM.

And the GI50 (NCI-H522 lung)?
The GI50 was greater than 100 µM.

And the TGI (NCI-H522 lung)?
Its TGI is greater than 100 µM.

What about the GI50 (A549 NSCLC) of the same compound?
Its GI50 is greater than 100 µM.

What about the TGI (A549 NSCLC) of the same compound?
Its TGI is greater than 100 µM.

And the GI50 (SNB-19 CNS)?
Its GI50 is greater than 100 µM.

What about the TGI (SNB-19 CNS) of the same compound?
The TGI was greater than 100 µM.

And the GI50 (OVCAR-5 ovarian)?
The GI50 was greater than 100 µM.

What about the TGI (OVCAR-5 ovarian) of the same compound?
The TGI was greater than 100 µM.

And the GI50 (HCC-2998 colon)?
Its GI50 is greater than 100 µM.

And the TGI (HCC-2998 colon)?
The TGI was greater than 100 µM.

And the GI50 (BT-549 breast)?
The GI50 was greater than 100 µM.

And the TGI (BT-549 breast)?
The TGI was greater than 100 µM.

What about the GI50 (NCI/ADR-RES ovarian) of the same compound?
The GI50 was greater than 100 µM.

What about the TGI (NCI/ADR-RES ovarian) of the same compound?
Its TGI is greater than 100 µM.
